Source: US20260356879A1, “CELASTROL DERIVATIVES” (Celloram Inc., priority 2022, published 2026)
“Also recorded” adds a separate entry of the source. Like-named read-outs stand apart in the source and are kept apart here.

Legend:
NF-kB = NF-kB luciferase reporter assay (HepG2 NF-kB-Luc reporter cells, IL-1β stimulated); type: cell-based, human; conditions: for IC50: Homo sapiens
Description: HepG2 NF-kB-Luc reporter cells stimulated with IL-1β (20 ng/ml) and the relative NF-kB luciferase activity (RLU) was determined for each of celastrol (compound 1) and each of the exemplary derivative compounds at the following eight point concentrations: 10 μM, 5 μM, 2.5 μM, 1.25 μM, 0.63 μM, 0.31 μM, 0.16 μM, 0.016 μM, and 0 μM). Assay values were plotted (not shown) and IC50 inhibitory concentrations were calculated after normalization using Prizm 9.0 software.
This example illustrates a study of the anti-inflammatory potential of an exemplary celastrol derivative of the present disclosure (compound 22) using an NF-κB luciferase promoter reporter gene assay in the human liver cancer cell line, HepG2.
NF-kB luciferase reporter assay: The celastrol derivative, compound 22 (prepared as described in Example 13) and the parent molecule, compound 1 (celastrol), were freshly dissolved in DMSO. HepG2 NF-κB reporter cells were seeded (2.5×10^4/well) in 96-well plate and then pre-treated with either compound 22 or compound 1 at the 8-point concentrations of 10, 5, 2.5, 1.25, 0.63, 0.31, 0.16, 0.016, or 0 μM, respectively, and the NF-κB promoter was activated by adding IL-1β (20 ng/ml) to the cells. After 18 hours, the cells were harvested by adding the 1× passive cell lysis buffer (Promega) and followed by measurement of the relative NF-kB luciferase activity (RLU) using GloMax discover microplate reader (Promega). Inhibitory concentrations (IC50) after normalization using Prizm 9.0 software.

NLRP3 inflammasome [1] = test: Secreted IL-1β in conditioned media of BMDC (ELISA), LPS+ATP or LPS+Nigericin; type: cell-based; conditions: 63-500 nM, FIG. 2B
Description: FIG. 2A depicts western blot images showing the relative NLRP3 inflammasome activity of the compounds 22 (CLM-022) and 1 (CLM-001) by detecting the level of cellular ASC complex and the mature form of IL-1β (15 kDa) in a conditioned media of BMDCs treated with LPS (100 ng/ml) for 3 hours and then the compound at 50 nM, 100 nM, and 500 nM concentration for 30 min, followed by ATP or Nigericin. ASC monomer and β-Actin proteins were used as controls. FIG. 2B depict plots of results showing secreted IL-1β levels measured by ELISA using conditioned media of BMDC treated with the compound 22 or compound 1 at 63 nM, 125 nM, 250 nM, and 500 nM, under NLRP3 inflammasome activation induced either by LPS+ATP or LPS+Nigericin. FIG. 2C depict plots of results showing secreted TNF-α levels measured by ELISA using conditioned media of BMDC treated with the compound 22 or compound 1 at 63 nM, 125 nM, 250 nM, and 500 nM, under NLRP3 inflammasome activation induced either by LPS+ATP or LPS+Nigericin.
1. […] After 30 minutes Nigericin (10 μM) or ATP (5 mM) was added (Signal 2) and the level of NLRP3-dependent inflammasome activity was determined by western blotting the treated cells with ASC complex (>48 kDa). […]

[2] = test system: LPS-induced acute inflammation; test: LPS-induced septic shock mouse model, cytokine expression in serum (ELISA) and colonic mucosa (qPCR); type: in vivo
Description: FIG. 4A, and FIG. 4B depict results showing that compound 22 (CLM-022) decreased the production of pro-inflammatory cytokines in the LPS-induced septic shock mouse model as described in Example 17. Compound 1 (CLM-001) and compound 22 (CLM-022) (1 mg/kg) injected intraperitoneally 1 hour prior to septic shock induction by administering sublethal dose of LPS (25 mg/kg, i.p.), mice were sacrificed 4 hours post LPS injection, and subjected to measurement of inflammatory cytokine expression. FIG. 4A depicts plot of data showing that the level of TNF-α decreased in the serum of compound 1 and compound 22 treated mice.
This example illustrates a study of the inhibitory function of an exemplary celastrol derivative of the present disclosure (compound 22) against LPS-induced acute inflammation in vivo, we set up LPS-induced septic shock mouse model (Yu et al., 2017) and detected the expression levels of inflammatory cytokines in colon.
Mice (n=3 per group) were administered intraperitoneally (i.p.) with control vehicle, compound 1 (1 mg/kg), or compound 22 (1 mg/kg). After 1 hour, mice were administered by i.p. injection a sublethal dose of LPS (25 mg/kg). Four hours later, the mice were subjected to blood collection and harvesting colonic mucosa by scraping colon. Cytokine expression was measured by conducting ELISA (Cat #900-T54, PeproTech) for TNF-α on blood serum samples and qPCR for the cytokines, IL-1 (TaqMan, Mm00434228), IL-6 (TaqMan, Mm00446190), TNF-α (TaqMan, 00443258), iNOS (TaqMan, 00440502), on colonic mucosa samples.

NLRP3 inflammasome [3] = test: IL-1β secretion in BMDMs, LPS + Nigericin; type: cell-based, mouse; conditions: FIG. 5A; for inhibition of IL-1β secretion: LPS + Nigericin
Description: This example illustrates a comparative study of CLM-022 and MCC950 in inhibiting NLRP3 inflammasome activity in mouse and human macrophages.
Bone marrow-derived macrophages (BMDMs) were treated with LPS (100 ng/ml) for 3 hours to induce the expression of inflammatory genes, including TNF-α, NLRP3, and pro-IL-1β. Subsequently, the BMDMs were treated with CLM-022 or MCC950 in a dose range of 0-10 μM for 30 minutes. Then, to fully activate NLRP3-dependent inflammasome activity and cytokine secretion, Nigericin (10 μM) was added to the BMDMs for an additional 30 minutes.

SMILES: CC1=C(O)C(=O)C=C2C1=CC=C1[C@@]2(C)CC[C@@]2(C)[C@@H]3C[C@](C)(N(C)C(=O)C(=O)N(C)C)CC[C@]3(C)CC[C@]12C [Compound 22, N′-[(2R,4aS,6aR,6aS,14aS,14bR)-10-hydroxy-2,4a,6a,6a,9,14a-hexamethyl-11-oxo-1,3,4,5,6,13,14,14b-octahydropicen-2-yl]-N,N,N′-trimethyl-oxamide]
- IC50 (NF-kB; HepG2, IL-1β (20 ng/ml), 18 hours, normalized, Example 14, FIG. 1B, read-out: IC50 for NF-κB promoter activity): 0.268 µM
- IC50 (NF-kB; HepG2 NF-kB-Luc reporter cells, IL-1β (20 ng/ml), Example 13, read-out: NF-kB IC50): 0.268 µM
- inhibition of NF-kB inflammatory signaling (NF-kB; IL-1β-induced, HepG2, FIG. 1): robust inhibitory potential for IL-1β-induced NF-kB inflammatory signaling pathway superior to celastrol (compound 1) at low concentrations; also recorded: robustly inhibits NF-κB inflammatory signaling
- % IC50 relative to Celastrol (NF-kB; relative to celastrol (compound 1)): 51%
- IC50 lower than that of compound 1 by (NF-kB; vs compound 1 (IC50=528 nM), Example 14): 50%
- inhibition of IL-1β secretion (NLRP3 inflammasome [1]): more strongly inhibited IL-1β secretion induced by both LPS+ATP and LPS+Nigericin; also recorded: strongly inhibited IL-1β secretion via suppression of NLRP3 inflammasome
- level of TNF-α in serum ([2]; 1 mg/kg i.p. 1 hour before LPS (25 mg/kg, i.p.), 4 hours post LPS, ELISA, FIG. 4A): decreased
- gene expression of IL-1β, IL-6, TNF-α, and iNOS in the colon ([2]; 1 mg/kg i.p. 1 hour before LPS (25 mg/kg, i.p.), 4 hours post LPS, qPCR, FIG. 4B): markedly inhibited
- inhibition of LPS-induced acute inflammation responses (IL-1, IL-6, TNF-α, iNOS in blood serum and colon mucosa) ([2]; 1 mg/kg i.p., LPS 25 mg/kg i.p., FIGS. 4A and 4B): efficiently suppressed expression of an inflammatory mediator and the inflammatory cytokines including IL-1, IL-6, TNF-α, and INOS in the blood serum and colon mucosa to levels comparable to or lower than the levels observed in the group administered celastrol (Compound 1)
- inhibition of IL-1β secretion (NLRP3 inflammasome [3]): outperforms the benchmark inflammasome inhibitor compound, MCC950, in inhibiting IL-1β secretion (but not TNF-α secretion)
- inhibition of IL-1β secretion (NLRP3 inflammasome [3]; listed as CLM-022): significant inhibition of IL-1β secretion
- IC50 (NLRP3 inflammasome [3]; Mus musculus, BMDM, LPS (100 ng/ml) + Nigericin (10 μM), 0-10 μM, read-out: IC50 for inhibition of IL-1β secretion (normalized)): 0.009 µM
